Drawing on patent US12415793B2, “Modulators of TMEM16A for treating respiratory disease” (TMEM16A Limited, priority 2020, dated 2025), this text covers activation and EC50 for twelve compounds.

The experiment addresses T1, human TMEM16A (TMEM16Aabc variant) (Homo sapiens, UniProt Q5XXA6, DEL476-501).
T1 sequence (Q5XXA6 with tags, fused parts or gaps isoform Q5XXA6-5 DEL539-564): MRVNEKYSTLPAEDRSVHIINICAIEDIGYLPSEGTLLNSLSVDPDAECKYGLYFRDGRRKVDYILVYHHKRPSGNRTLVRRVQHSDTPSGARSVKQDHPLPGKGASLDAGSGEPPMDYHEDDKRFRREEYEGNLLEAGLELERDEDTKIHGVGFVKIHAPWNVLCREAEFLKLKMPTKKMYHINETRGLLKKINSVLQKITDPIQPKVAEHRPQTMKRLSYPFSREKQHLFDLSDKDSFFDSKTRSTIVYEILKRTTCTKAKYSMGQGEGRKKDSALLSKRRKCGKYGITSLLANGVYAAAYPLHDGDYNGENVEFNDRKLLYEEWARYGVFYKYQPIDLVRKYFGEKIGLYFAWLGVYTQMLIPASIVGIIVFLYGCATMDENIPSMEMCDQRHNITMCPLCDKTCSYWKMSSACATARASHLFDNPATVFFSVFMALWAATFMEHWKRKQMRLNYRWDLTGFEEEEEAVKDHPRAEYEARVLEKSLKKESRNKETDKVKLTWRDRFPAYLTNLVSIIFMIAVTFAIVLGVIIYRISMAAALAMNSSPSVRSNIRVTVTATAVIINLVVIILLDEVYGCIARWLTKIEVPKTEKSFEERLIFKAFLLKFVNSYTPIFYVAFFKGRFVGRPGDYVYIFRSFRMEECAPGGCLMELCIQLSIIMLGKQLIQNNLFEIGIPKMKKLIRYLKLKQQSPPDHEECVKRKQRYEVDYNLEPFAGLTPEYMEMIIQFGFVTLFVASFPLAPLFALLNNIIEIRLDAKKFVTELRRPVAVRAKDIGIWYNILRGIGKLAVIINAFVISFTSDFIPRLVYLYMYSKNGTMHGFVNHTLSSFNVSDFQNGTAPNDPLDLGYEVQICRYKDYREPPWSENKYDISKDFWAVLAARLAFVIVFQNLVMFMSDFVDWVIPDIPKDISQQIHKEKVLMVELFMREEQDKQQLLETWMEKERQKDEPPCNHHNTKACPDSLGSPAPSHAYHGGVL
Put plainly: Automated whole-cell patch clamp (Qpatch) assay to detect TMEM16A activity in recombinant cells. Type of experiment: cell-based. As to conditions: for activation at 3.33 µM: 3.33 μM solution of test compound, percentage increase of baseline TMEM16A current, FRT cells stably expressing human TMEM16A, intracellular calcium at EC20, +70 mV, read-out: % Potentiation @ 3.33 μM Avg; for EC50: calculated from cumulative concentration response curve, FRT-TMEM16A cells, whole-cell patch clamp (Qpatch). How it is done:
Automated Whole-Cell Patch Clamp Assay to Detect TMEM16A Activity in Recombinant Cells
Cell Culture and Preparation
Fisher rat thyroid (FRT) cells stably expressing human TMEM16A (TMEM16Aabc variant; Dr Luis Galietta, Insituto Giannina, Italy) were cultured in T-75 flasks in Hams F-12 media with Coon's modification (Sigma) supplemented with 10% (v/v) foetal bovine serum, penicillin-streptomycin (10,000 U/mL/10000 μg/mL), G-418 (750 μg/mL), L-glutamine (2 mM) and sodium bicarbonate solution (7.5% v/v). At ˜90% confluence cells were harvested for experiments by detachment with a 2:1 (v/v) mixture of Detachin (BMS Biotechnology) and 0.25% (w/v) trypsin-EDTA. Cells were diluted to a density of 3.5-4.5×10^6 cells/mL with media consisting of CHO-S-SFM II (Sigma), 25 mM HEPES (Sigma) and Soy bean trypsin inhibitor (Sigma).
Whole-Cell Patch Clamp Recording
FRT-TMEM16A cells were whole-cell patch clamped using an automated planar patch clamp system (Qpatch, Sophion). Briefly, once high resistance (GOhm) seals were established between the cells and the planar recording array the patch was ruptured using suction pulses to establish the whole-cell recording configuration of the patch clamp technique. The assay employed the following solutions (all reagents Sigma): • Intracellular solution (mM): N-methyl-D-glucamine 130, CaCl2 18.2, MgCl2 1, HEPES 10, EGTA 10, BAPTA 20, Mg-ATP 2, pH 7.25, 325mOsm with sucrose. • Extracellular solution (mM): N-methyl-D-glucamine 130, CaCl2 2, MgCl2 1, HEPES 10, pH 7.3, 320 mOsm with sucrose.
The intracellular solution buffers intracellular calcium at levels required to give ˜20% activation of the maximal TMEM16A mediated current (EC20 for calcium ions). Cells were voltage clamped at a holding potential of −70 mV and a combined voltage step (to +70 mV)/ramp (−90 my to +90 mV) was applied at 0.05 Hz. After a period of current stabilisation test compounds, solubilised in 100% (v/v) DMSO and subsequently diluted into extracellular solution, were applied to generate a cumulative concentration response curve. Each concentration of test compound was incubated for 5 minutes before addition of the next concentration. After the final concentration was tested a supramaximal concentration of either a known active positive modulator or the TMEM16A inhibitor, CaCCinhA01 (Del La Fuente et al, 2008) was added to define the upper and lower limits of the assay.
Compound activity was quantified by measuring the increase in current upon compound addition and expressing this as a percentage increase of baseline TMEM16A current level. Percentage increases in current were determined for each concentration and the data plotted as a function of concentration using either the Qpatch software or Graphpad Prism v6.05 providing the concentration which gave 50% of its maximal effect (EC50) and maximum efficacy (percentage of baseline increase).
In FIG. 1, IBL equals baseline current, I[#1] equals the peak current during test compound concentration 1 incubation period and so on.
Peak TMEM16A current at +70 mV was plotted as a function of time over the assay period. Baseline current (IBL) was measured after a period of stabilisation. The increase in current for each compound addition was determined by taking the peak current during the incubation period and subtracting the current from the previous recording period and then expressing this as a percentage of the baseline current. For test compound concentration 1 in FIG. 1 this is:
For each additional concentration tested the increase in current was determined by subtracting the current from the previous incubation period and normalising the baseline value—for test concentration 2 in FIG. 1 this is:
The values for each test concentration were plotted as a cumulative function of concentration e.g. for test concentration two this would be the sum of the peak changes measured during concentration one plus concentration two.

Consider `CC(C)(C)NC(=O)c1ccc(NC(=O)Cc2cc(Cl)ccc2O)s1` [Example 1, N-tert-Butyl-5-[[2-(5-chloro-2-hydroxy-phenyl)acetyl]amino]thiophene-2-carboxamide], for which the activation at 3.33 µM was determined as 107% and the EC50 – broadly, the concentration that produces a half-maximal response – was 42 nM.
The matching figures for `CC(C)(C)NC(=O)c1csc(NC(=O)Cc2cc(Cl)ccc2O)c1` [Example 1.1, N-tert-Butyl-5-[[2-(5-chloro-2-hydroxy-phenyl)acetyl]amino]thiophene-3-carboxamide]: 184% and 440 nM.
Consider `CC(C)(C)NC(=O)c1cc(NC(=O)Cc2cc(Cl)ccc2O)cs1` [Example 1.2, N-tert-Butyl-4-[[2-(5-chloro-2-hydroxy-phenyl)acetyl]amino]thiophene-2-carboxamide], for which the activation at 3.33 µM worked out at 237% and the EC50 is 400 nM.
Take `CC(C)(C)C(=O)Nc1cccc(C(=O)NCc2cc(Cl)ccc2O)c1` [Example 2, N-[(5-Chloro-2-hydroxy-phenyl)methyl]-3-(2,2-dimethylpropanoylamino)benzamide]: the activation at 3.33 µM amounted to 127%.
On the same count and under the same terms, the value for `CC(C)(C)C(=O)Nc1ccnc(C(=O)NCc2cc(Cl)ccc2O)c1` [Example 3, N-[(5-Chloro-2-hydroxy-phenyl)methyl]-4-(2,2-dimethylpropanoylamino)pyridine-2-carboxamide] was 81.3%; that for `CC(C)(C)NC(=O)c1cc(C(=O)NCc2ccccc2O)ccn1` [Example 4, N2-tert-Butyl-N4-[(2-hydroxyphenyl)methyl]pyridine-2,4-dicarboxamide] was 35.2%.
As to `CC(C)(C)NC(=O)c1cccc(C(=O)NCc2ccccc2O)c1` [Example 5, N1-tert-Butyl-N3-[(2-hydroxyphenyl)methyl]benzene-1,3-dicarboxamide], the activation at 3.33 µM is 41.2% and the EC50 is 2910 nM.
In the same order, the values of `CC(C)(C)C(=O)Nc1cccc(NC(=O)Cc2cc(Cl)ccc2O)c1` [Example 6, N-[3-[[2-(5-Chloro-2-hydroxy-phenyl)acetyl]amino]phenyl]-2,2-dimethyl-propanamide] are 68.1% and 992 nM.
For `CC(C)(C)C(=O)Nc1cc(NC(=O)Cc2cc(Cl)ccc2O)ccn1` [Example 7, N-[4-[[2-(5-Chloro-2-hydroxy-phenyl)acetyl]amino]-2-pyridyl]-2,2-dimethyl-propanamide], the activation at 3.33 µM came to 156% and the concentration giving a half-maximal response (EC50) is 615 nM.
For `O=C(Cc1cc(Cl)ccc1O)Nc1ccnc(NC(=O)C2CCCCC2)c1` [Example 7.1, N-[4-[[2-(5-Chloro-2-hydroxy-phenyl)acetyl]amino]-2-pyridyl]cyclohexane carboxamide], the activation at 3.33 µM is 120% and the EC50 is 1110 nM.
As to `CC(C)(C#N)NC(=O)c1ccc(NC(=O)Cc2cc(O)c(C(C)(C)C)cc2F)s1` [Example 8, 5-[[2-(4-tert-Butyl-2-fluoro-5-hydroxy-phenyl)acetyl]amino]-N-(1-cyano-1-methyl-ethyl)thiophene-2-carboxamide], the activation at 3.33 µM came out at 134% and the EC50 is 85 nM.
In the same order, the values of `CC(C)(CO)c1cc(F)c(CC(=O)Nc2ccc(C(=O)NC3(C(F)(F)F)CC3)s2)cc1O` [Example 9, 5-[[2-[2-Fluoro-5-hydroxy-4-(2-hydroxy-1,1-dimethyl-ethyl)phenyl]acetyl]amino]-N-[1-(trifluoromethyl)cyclopropyl]thiophene-2-carboxamide] are 134% and 98 nM.
